What was measured:
Micrococcus luteus = assay: agar disc diffusion assay, inhibition zone; type: cell-based; conditions: 30° C., 24 h, read-out: Inhibition Zone Width
Experimental: (§1) Antibacterial activity was tested against bacteria using an agar disc diffusion assay method. Sterile paper discs (6 mm i.d.) impregnated with the substance under test at a concentration of 50 μg disc^−1 were applied onto the surface of an agar plate (plastic Petri dish) inoculated with one strain with sterile forceps and gently pressed down to ensure good contact with the surface. Blank discs treated with the same volume of DMSO were added. A control disc, containing streptomycin was used. After the application of discs, the plates were incubated at 30° C. for 24 h, and then the size of the inhibition zone was measured.
as §1, with “using” for “using an”, “assay.” for “assay method.”, “disc” for “disc,”, “h. The” for “h, and then the”, “measured. The results are presented in Table 8 and Table 9 for Cyclo (D)-Pro-(D)-Phe and b3-methyl-N-(2-phenylethyl)butanamide, respectively.” for “measured.”

Moraxella phenylpyruvica = assay: agar disc diffusion assay, inhibition zone; type: cell-based; conditions: Psychrobacter phenylpyruvicus, 30° C., 24 h, read-out: Inhibition Zone Width
Experimental: as §1
as §1, with “using” for “using an”, “assay.” for “assay method.”, “disc” for “disc,”, “h. The” for “h, and then the”, “measured. The results are presented in Table 8 and Table 9 for Cyclo (D)-Pro-(D)-Phe and b3-methyl-N-(2-phenylethyl)butanamide, respectively.” for “measured.”

[1] = system: Pseudoalteromonas piscida; assay: agar disc diffusion assay, inhibition zone; type: cell-based; conditions: 30° C., 24 h, read-out: Inhibition Zone Width
Experimental: as §1
as §1, with “using” for “using an”, “assay.” for “assay method.”, “disc” for “disc,”, “h. The” for “h, and then the”, “measured. The results are presented in Table 8 and Table 9 for Cyclo (D)-Pro-(D)-Phe and b3-methyl-N-(2-phenylethyl)butanamide, respectively.” for “measured.”

Pseudoalteromonas sp. = assay: agar disc diffusion assay, inhibition zone; type: cell-based; conditions: 30° C., 24 h, read-out: Inhibition Zone Width
Experimental: as §1
as §1, with “using” for “using an”, “assay.” for “assay method.”, “disc” for “disc,”, “h. The” for “h, and then the”, “measured. The results are presented in Table 8 and Table 9 for Cyclo (D)-Pro-(D)-Phe and b3-methyl-N-(2-phenylethyl)butanamide, respectively.” for “measured.”

Shewanella algae = assay: agar disc diffusion assay, inhibition zone; type: cell-based; conditions: 30° C., 24 h, read-out: Inhibition Zone Width
Experimental: as §1
as §1, with “using” for “using an”, “assay.” for “assay method.”, “disc” for “disc,”, “h. The” for “h, and then the”, “measured. The results are presented in Table 8 and Table 9 for Cyclo (D)-Pro-(D)-Phe and b3-methyl-N-(2-phenylethyl)butanamide, respectively.” for “measured.”

[2] = system: Staphylococcus haemolyticus; assay: agar disc diffusion assay, inhibition zone; type: cell-based; conditions: 30° C., 24 h, read-out: Inhibition Zone Width
Experimental: as §1
as §1, with “using” for “using an”, “assay.” for “assay method.”, “disc” for “disc,”, “h. The” for “h, and then the”, “measured. The results are presented in Table 8 and Table 9 for Cyclo (D)-Pro-(D)-Phe and b3-methyl-N-(2-phenylethyl)butanamide, respectively.” for “measured.”

Vibrio fluvialis = assay: agar disc diffusion assay, inhibition zone; type: cell-based; conditions: 30° C., 24 h, read-out: Inhibition Zone Width
Experimental: as §1
as §1, with “using” for “using an”, “assay.” for “assay method.”, “disc” for “disc,”, “h. The” for “h, and then the”, “measured. The results are presented in Table 8 and Table 9 for Cyclo (D)-Pro-(D)-Phe and b3-methyl-N-(2-phenylethyl)butanamide, respectively.” for “measured.”

Vibrio harveyi = assay: agar disc diffusion assay, inhibition zone; type: cell-based; conditions: 30° C., 24 h, read-out: Inhibition Zone Width
Experimental: as §1
as §1, with “using” for “using an”, “assay.” for “assay method.”, “disc” for “disc,”, “h. The” for “h, and then the”, “measured. The results are presented in Table 8 and Table 9 for Cyclo (D)-Pro-(D)-Phe and b3-methyl-N-(2-phenylethyl)butanamide, respectively.” for “measured.”

Vibrio sp. (NAP-4) = assay: agar disc diffusion assay, inhibition zone; type: cell-based; conditions: 30° C., 24 h, read-out: Inhibition Zone Width
Experimental: as §1
as §1, with “using” for “using an”, “assay.” for “assay method.”, “disc” for “disc,”, “h. The” for “h, and then the”, “measured. The results are presented in Table 8 and Table 9 for Cyclo (D)-Pro-(D)-Phe and b3-methyl-N-(2-phenylethyl)butanamide, respectively.” for “measured.”

Ruegeria sp. = assay: agar disc diffusion assay, inhibition zone; type: cell-based; conditions: 50 μg/disc, 30° C., 24 h; read-out: Inhibition Zone Width
Experimental: as §1

Staphylococcus aureus = assay: agar disc diffusion assay, inhibition zone; type: cell-based; conditions: 50 μg/disc, 30° C., 24 h, read-out: Inhibition Zone Width
Experimental: as §1

Loktanella hongkongensis = assay: agar disc diffusion assay, inhibition zone; type: cell-based; conditions: Limimaricola hongkongensis; 100 μg (streptomycin control), 30° C., 24 h; read-out: Inhibition Zone Width
Experimental: as §1, with “using” for “using an”, “assay.” for “assay method.”, “disc” for “disc,”, “h. The” for “h, and then the”, “measured. The results are presented in Table 8 and Table 9 for Cyclo (D)-Pro-(D)-Phe and b3-methyl-N-(2-phenylethyl)butanamide, respectively.” for “measured.”

Rhodovulum sp. = assay: agar disc diffusion assay, inhibition zone; type: cell-based; conditions: 100 μg (streptomycin control), 30° C., 24 h; read-out: Inhibition Zone Width
Experimental: as §1, with “using” for “using an”, “assay.” for “assay method.”, “disc” for “disc,”, “h. The” for “h, and then the”, “measured. The results are presented in Table 8 and Table 9 for Cyclo (D)-Pro-(D)-Phe and b3-methyl-N-(2-phenylethyl)butanamide, respectively.” for “measured.”

Vibrio alginolyticus = assay: agar disc diffusion assay, inhibition zone; type: cell-based; conditions: 100 μg (streptomycin control), 30° C., 24 h, read-out: Inhibition Zone Width
Experimental: as §1, with “using” for “using an”, “assay.” for “assay method.”, “disc” for “disc,”, “h. The” for “h, and then the”, “measured. The results are presented in Table 8 and Table 9 for Cyclo (D)-Pro-(D)-Phe and b3-methyl-N-(2-phenylethyl)butanamide, respectively.” for “measured.”

Vibrio furnissii = assay: agar disc diffusion assay, inhibition zone; type: cell-based; conditions: 100 μg (streptomycin control), 30° C., 24 h, read-out: Inhibition Zone Width
Experimental: as §1, with “using” for “using an”, “assay.” for “assay method.”, “disc” for “disc,”, “h. The” for “h, and then the”, “measured. The results are presented in Table 8 and Table 9 for Cyclo (D)-Pro-(D)-Phe and b3-methyl-N-(2-phenylethyl)butanamide, respectively.” for “measured.”

Vibrio halioticoli = assay: agar disc diffusion assay, inhibition zone; type: cell-based; conditions: 100 μg (streptomycin control), 30° C., 24 h, read-out: Inhibition Zone Width
Experimental: as §1, with “using” for “using an”, “assay.” for “assay method.”, “disc” for “disc,”, “h. The” for “h, and then the”, “measured. The results are presented in Table 8 and Table 9 for Cyclo (D)-Pro-(D)-Phe and b3-methyl-N-(2-phenylethyl)butanamide, respectively.” for “measured.”

Vibrio vulnificus = assay: agar disc diffusion assay, inhibition zone; type: cell-based; conditions: 100 μg (streptomycin control), 30° C., 24 h, read-out: Inhibition Zone Width
Experimental: as §1, with “using” for “using an”, “assay.” for “assay method.”, “disc” for “disc,”, “h. The” for “h, and then the”, “measured. The results are presented in Table 8 and Table 9 for Cyclo (D)-Pro-(D)-Phe and b3-methyl-N-(2-phenylethyl)butanamide, respectively.” for “measured.”

[3] = system: barnacle Balanus amphitrite larvae; assay: anti-larval settlement bioassay in 24-well plates; type: in vivo; conditions: tested range 60-140 μg ml^−1, 24 h
Experimental: Anti-larval settlement activity of 3-chloro-2,5-dihydroxy benzyl alcohol (compound 1) was conducted using 24-well polystyrene plates. Pure compound was dissolved in DMSO and added to autoclaved FSW at different concentrations. Competent Balanus amphitrites larvae (10±2 individuals) were added to each well with 1 ml testing solution in 5 replicates, and wells containing FSW (filtered seawater) served as control. The 24-well plates were incubated at 30° C. for 24 h. The percent settlement was determined by counting the number of settled larvae under a dissecting microscope. In all bioassays, FSW served as the control. Statistical calculations were performed with the SPSS (Statistical Package for the Social Sciences) software package, Version 11.
(§2) The larval bioassay was conducted according to Rittschof et al. (1994), which is incorporated by reference herein in its entirety.
(§3) The assay was conducted according to Rittschof et al. (1994). Data plotted are means+SD of five replicates.
For determining anti-larval settlement activity, adult Balanus amphitrile (Darwin) were collected from the intertidal zone in Hong Kong (22°19′N, 114°16′E). Nauplii obtained from several adults were mass-reared to cyprid stage at a density of 2 larvae ml^−1 in 0.22-μm-filtered seawater with 30 ppt salinity (FSW) using Chaetoceros gracilis Schutt as food and a rearing temperature of 28° C. Newly transformed cyprids were used for the experiment.
Anti-larval settlement activity of succinic acid against B. amphitrite was determined using 24-well polystyrene plates. Pure compound was dissolved in autoclaved FSW ranged from 60-140 μg ml^−1 for B. amphitrite. Competent larvae (15±2 individuals) were added to each well with 1 ml testing solution in 5 replicates, and wells containing FSW served as the control. The 24-well plates were incubated at 30° C. for 24 h. The percent larval settlement was determined by counting the number of settled individuals under a dissecting microscope and expressed as a proportion of the total number of larvae in the well.

[4] = system: Balanus amphitrite larvae; assay: in vivo; conditions: in vivo
Experimental: as §2
Toxicity of cyclo (D)-Pro-(D)-Phe was determined using 24-well polystyrene plates. Pure compound was dissolved in DMSO and added to autoclaved FSW to form different concentrations. Competent Balanus amphitrites larvae (10±2 individuals) were added to each well with 1 ml testing solution in 5 replicates. The wells containing FSW served as the control. The 24-well plates were incubated at 30° C. for 24 h. The percent mortality was determined by counting the number of dead larvae under a dissecting microscope.
as §3

## [H]/N=C(/N)N[C@H]1[C@H](O)[C@@H](O)[C@H](O[C@@H]2O[C@@H](C)[C@](O)(C=O)[C@H]2O[C@@H]2O[C@@H](CO)[C@H](O)[C@@H](O)[C@@H]2NC)[C@@H](N/C(N)=N\[H])[C@@H]1O [Streptomycin, reference compound]
Micrococcus luteus; 50 μg/disc
  zone of inhibition at 50 µg/disc: 6.5 mm
Micrococcus luteus; 100 μg (streptomycin control)
  zone of inhibition at 100 µg/disc: 6.7 ± 0.6 mm
Moraxella phenylpyruvica; 50 μg/disc
  zone of inhibition at 50 µg/disc: 0 mm
Moraxella phenylpyruvica; 100 μg (streptomycin control)
  zone of inhibition at 100 µg/disc: 9 mm
[1]; 50 μg/disc
  zone of inhibition at 50 µg/disc: 5 mm
[1]; 100 μg (streptomycin control)
  zone of inhibition at 100 µg/disc: 3 ± 1 mm
Pseudoalteromonas sp.; 50 μg/disc
  zone of inhibition at 50 µg/disc: 6 mm
Pseudoalteromonas sp.; 100 μg (streptomycin control)
  zone of inhibition at 100 µg/disc: 4 ± 1 mm
Shewanella algae; 50 μg/disc
  zone of inhibition at 50 µg/disc: 7 mm
Shewanella algae; 100 μg (streptomycin control)
  zone of inhibition at 100 µg/disc: 6.3 ± 1.2 mm
[2]; 50 μg/disc
  zone of inhibition at 50 µg/disc: 6 mm
[2]; 100 μg (streptomycin control)
  zone of inhibition at 100 µg/disc: 3 mm
Vibrio fluvialis; 50 μg/disc
  zone of inhibition at 50 µg/disc: 4 mm
Vibrio fluvialis; 100 μg (streptomycin control)
  zone of inhibition at 100 µg/disc: 3 mm
Vibrio harveyi; 50 μg/disc
  zone of inhibition at 50 µg/disc: 3 mm
Vibrio harveyi; 100 μg (streptomycin control)
  zone of inhibition at 100 µg/disc: 6 mm
Vibrio sp. (NAP-4); 50 μg/disc
  zone of inhibition at 50 µg/disc: 4 mm
Vibrio sp. (NAP-4); 100 μg (streptomycin control)
  zone of inhibition at 100 µg/disc: 5.7 ± 0.6 mm
Ruegeria sp.
  zone of inhibition at 50 µg/disc: 4.5 mm
Staphylococcus aureus
  zone of inhibition at 50 µg/disc: 3.5 mm
Loktanella hongkongensis
  zone of inhibition at 100 µg/disc: 4 mm
Rhodovulum sp.
  zone of inhibition at 100 µg/disc: 5.3 ± 1.2 mm
Vibrio alginolyticus
  zone of inhibition at 100 µg/disc: 6.7 ± 2.3 mm
Vibrio furnissii
  zone of inhibition at 100 µg/disc: 2.3 ± 0.6 mm
Vibrio halioticoli
  zone of inhibition at 100 µg/disc: 4.3 ± 0.6 mm
Vibrio vulnificus
  zone of inhibition at 100 µg/disc: 3.3 ± 0.8 mm

## O=C(O)CCC(=O)O [Compound 4, succinic acid]
[3]
  concentration showing anti-larval settlement effects: 110 µg/mL
[4]
  therapeutic ratio LC50/EC50: 94.1

From patent publication US8257478B2, “Use of marine fungus originated compounds as antifouling agents” (The Hong Kong University of Science and Technology, priority 2004, dated 2012)
